Reference: US9133183B2, “Imidazolidinones and analogs exhibiting anti-cancer and anti-proliferative activities” (Deciphera Pharmaceuticals, LLC, priority 2013, dated 2015)

Legend:
[1] = molecular target: unphosphorylated c-FMS kinase (uFMS, Seq. ID no. 1) (Homo sapiens (Human), UniProt P07333); test: uFMS kinase assay (ADP production coupled to pyruvate kinase/lactate dehydrogenase); assay type: biochemical; details: enzymatic assay, ATP 500 μM; read-out: uFMS
Outline: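 Unphosphorylated FMS (10 nM) with polyE4Y 1 mg/mL and 500 μM ATP in 90 mM Tris pH 7.5, 10 mM MgCl2, 0.2% octyl-glucoside, 1% DMSO. ADP formation was coupled via pyruvate kinase/LDH to NADH oxidation, followed at A340 for 4 h at 30° C.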

M-NFS-60 cells = test: M-NFS-60 cell proliferation assay (resazurin); assay type: cell-based; details: 67 h incubation
Outline: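 Cells kept in medium containing 20 ng/mL mouse recombinant M-CSF. Fluorescence was read at ex 540/em 600 nm, and IC50 was fitted from percent inhibition across a range of inhibitor concentrations.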

osteoclast precursors = test: Osteoclast tartrate-resistant acid phosphatase assay; assay type: cell-based; details: Osteoclast, 7-14 days, RANKL and M-CSF
[2] = molecular target: c-FMS kinase in THP-1 cells (Homo sapiens (Human), UniProt P07333); test: Phospho-FMS ELISA assay in THP-1 cells; assay type: cell-based; details: 4 h compound, M-CSF stimulation 5 min; read-out: pFMS inhibition in THP-1 cells
Procedure: THP-1 cells (catalog #TIB-202) were obtained from the ATCC. Briefly, cells were grown in RPMI 1640 supplemented with 10% characterized fetal bovine serum, 1% sodium pyruvate, 1% Penicillin-Streptomycin-Glutamine (PSG) and 55 uM 2-mercaptoethanol (Invitrogen, Carlsbad, Calif.) at 37 degrees Celsius, 5% CO2, 95% humidity. Cells were allowed to expand until reaching 70-95% confluency at which point they were subcultured or harvested for assay use.
A serial dilution of test compound was diluted 1:100 in assay medium (RPMI 1640 supplemented with 10% characterized fetal bovine serum) in a 96 well black clear bottom plate (Corning, Corning, N.Y.). In a separate 96 well black clear bottom plate, one hundred and fifty thousand THP-1 cells were added per well in 100 μL in assay medium. Fifty microliters of diluted compound was then added to the cells. Plates were incubated for 4 hours at 37 degrees Celsius, 5% CO2, 95% humidity. At the end of the incubation period, cells were stimulated with 50 μL of a 100 nM solution of recombinant human M-CSF (catalog #216-MC, R & D Systems, Minneapolis, Minn.) in assay medium and the plate was incubated for 5 minutes at 37 degrees Celsius, 5% CO2, 95% humidity. Lysates were prepared and used to perform the phospho-FMS ELISA as described by the manufacturer (catalog #DYC3268, R & D Systems, Minneapolis, Minn.). GraphPad Prism was used to calculate IC50 values obtained from data generated from the ELISA assay.

[3] = molecular target: unphosphorylated c-KIT kinase (uKIT, Seq. ID no. 2) (Homo sapiens (Human), UniProt P10721); test: uKit kinase assay (coupled pyruvate kinase/lactate dehydrogenase); assay type: biochemical; details: enzymatic assay, ATP 2000 μM
Outline: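 Unphosphorylated KIT (12 nM, N-terminal GST fusion) was run with 1 mg/mL polyE4Y, 2000 μM ATP and 10 mM MgCl2 in Tris buffer (pH 7.5, 0.2% octyl-glucoside, 1% DMSO). ADP was coupled via PK/LDH, with NADH loss tracked at A340 for 4 h at 30 °C. Rates at 3–4 h gave % inhibition and IC50.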

[4] = molecular target: unphosphorylated PDGFRβ kinase (uPDGFRβ, Seq. ID No. 3) (Homo sapiens (Human), UniProt P09619); test: Unphosphorylated PDGFRβ kinase assay (coupled pyruvate kinase/lactate dehydrogenase); assay type: biochemical; details: enzymatic assay, ATP 500 μM
Procedure: Unphosphorylated PDGFRβ (uPDGFRβ) Kinase (Seq. ID No. 3) Assay
Activity of unphosphorylated PDGFRβ kinase (uPDGFRβ, Seq. ID No. 3) was determined by following the production of ADP from the kinase reaction with ATP and poly E4Y as substrates through coupling with the pyruvate kinase/lactate dehydrogenase system (e.g., Schindler et al. Science (2000) 289: 1938-1942). In this assay, the oxidation of NADH (thus the decrease at A340 nm) was continuously monitored spectrophometrically. The reaction mixture (100 μL) contained PDGFRβ (DeCode, 15.7 nM), polyE4Y (2.5 mg/mL), MgCl2 (10 mM), pyruvate kinase (4 units), lactate dehydrogenase (0.7 units), phosphoenol pyruvate (1 mM) and NADH (0.28 mM) and ATP (500 μM) in a 90 mM Tris buffer containing 0.2% octyl-glucoside and 1% DMSO, at pH 7.5. The inhibition reaction was started by mixing serial diluted test compound with the above reaction mixture. The absorption at 340 nm was monitored continuously for 4 h at 30° C. on a Polarstar Optima or Synergy 2 plate reader. The reaction rate was calculated using the 1.5 to 2.5 h time frame. Percent inhibition was obtained by comparison of reaction rate with that of a control (i.e., with no test compound). IC50 values were calculated from a series of percent inhibition values determined at a range of inhibitor concentrations using software routines as implemented in the GraphPad Prism software package.
uPDGFRβ Kinase Sequence (Residues 557-1106) Used for Screening (Seq ID No. 3)

Sequence of c-FMS kinase in THP-1 cells (P07333 20-972): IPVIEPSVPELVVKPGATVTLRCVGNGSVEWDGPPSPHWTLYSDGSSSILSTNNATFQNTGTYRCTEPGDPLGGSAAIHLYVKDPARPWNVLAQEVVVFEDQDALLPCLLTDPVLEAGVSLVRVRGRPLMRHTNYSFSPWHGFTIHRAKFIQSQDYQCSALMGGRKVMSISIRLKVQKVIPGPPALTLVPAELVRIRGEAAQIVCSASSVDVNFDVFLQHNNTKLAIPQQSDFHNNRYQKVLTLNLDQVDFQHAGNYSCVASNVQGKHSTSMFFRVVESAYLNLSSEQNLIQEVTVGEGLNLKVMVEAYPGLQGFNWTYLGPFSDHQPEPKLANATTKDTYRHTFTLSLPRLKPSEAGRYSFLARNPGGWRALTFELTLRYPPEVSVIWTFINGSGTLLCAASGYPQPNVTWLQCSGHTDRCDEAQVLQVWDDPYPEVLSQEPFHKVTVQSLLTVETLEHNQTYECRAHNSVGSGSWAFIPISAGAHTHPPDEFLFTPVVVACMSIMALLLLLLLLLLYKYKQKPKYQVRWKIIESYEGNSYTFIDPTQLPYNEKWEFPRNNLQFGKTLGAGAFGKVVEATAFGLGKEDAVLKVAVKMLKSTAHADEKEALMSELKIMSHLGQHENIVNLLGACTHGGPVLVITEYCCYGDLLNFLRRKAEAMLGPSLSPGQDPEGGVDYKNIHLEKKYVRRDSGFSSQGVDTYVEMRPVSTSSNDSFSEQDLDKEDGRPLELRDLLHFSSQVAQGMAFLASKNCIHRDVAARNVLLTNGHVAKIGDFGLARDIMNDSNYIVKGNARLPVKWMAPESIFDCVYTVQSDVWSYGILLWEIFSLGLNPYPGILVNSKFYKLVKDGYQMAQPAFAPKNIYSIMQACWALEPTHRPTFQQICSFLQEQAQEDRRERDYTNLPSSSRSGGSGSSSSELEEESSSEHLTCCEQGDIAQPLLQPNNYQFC
Sequence of unphosphorylated c-KIT kinase (uKIT, Seq. ID no. 2) (P10721 other isoform, or with tags, fused parts or gaps): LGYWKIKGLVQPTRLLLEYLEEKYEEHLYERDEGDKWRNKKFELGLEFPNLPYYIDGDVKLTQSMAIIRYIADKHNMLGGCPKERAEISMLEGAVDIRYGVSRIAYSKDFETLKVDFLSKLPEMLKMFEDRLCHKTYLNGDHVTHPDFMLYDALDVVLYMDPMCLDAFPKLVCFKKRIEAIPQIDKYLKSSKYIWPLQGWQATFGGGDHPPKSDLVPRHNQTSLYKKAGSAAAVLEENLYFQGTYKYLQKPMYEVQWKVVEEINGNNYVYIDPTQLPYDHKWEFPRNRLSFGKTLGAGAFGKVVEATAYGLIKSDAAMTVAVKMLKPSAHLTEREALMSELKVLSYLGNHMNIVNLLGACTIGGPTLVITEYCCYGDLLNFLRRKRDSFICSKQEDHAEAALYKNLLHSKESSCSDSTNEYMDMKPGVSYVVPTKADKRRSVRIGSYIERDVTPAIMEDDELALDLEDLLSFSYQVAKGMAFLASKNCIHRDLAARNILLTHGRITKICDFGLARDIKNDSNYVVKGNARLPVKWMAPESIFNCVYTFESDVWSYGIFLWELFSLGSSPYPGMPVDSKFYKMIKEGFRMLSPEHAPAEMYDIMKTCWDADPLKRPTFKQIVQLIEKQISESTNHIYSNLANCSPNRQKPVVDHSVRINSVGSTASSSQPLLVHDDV
Sequence of unphosphorylated PDGFRβ kinase (uPDGFRβ, Seq. ID No. 3) (P09619 557-1106): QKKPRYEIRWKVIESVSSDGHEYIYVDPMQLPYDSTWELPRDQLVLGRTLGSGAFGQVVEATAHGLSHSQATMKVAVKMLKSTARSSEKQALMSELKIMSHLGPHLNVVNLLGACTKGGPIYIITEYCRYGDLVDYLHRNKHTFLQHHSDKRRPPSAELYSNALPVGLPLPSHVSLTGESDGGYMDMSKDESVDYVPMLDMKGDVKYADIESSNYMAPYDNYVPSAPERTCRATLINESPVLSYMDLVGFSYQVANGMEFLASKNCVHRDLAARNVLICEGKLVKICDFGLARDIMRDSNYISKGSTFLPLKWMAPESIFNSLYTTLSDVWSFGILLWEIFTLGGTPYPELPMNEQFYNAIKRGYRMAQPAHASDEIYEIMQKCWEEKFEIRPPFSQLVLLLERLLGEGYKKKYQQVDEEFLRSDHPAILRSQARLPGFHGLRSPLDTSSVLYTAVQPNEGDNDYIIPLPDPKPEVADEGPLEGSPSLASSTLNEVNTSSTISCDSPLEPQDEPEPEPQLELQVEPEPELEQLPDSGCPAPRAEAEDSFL
Sequence of unphosphorylated c-FMS kinase (uFMS, Seq. ID no. 1) (P07333 538-972): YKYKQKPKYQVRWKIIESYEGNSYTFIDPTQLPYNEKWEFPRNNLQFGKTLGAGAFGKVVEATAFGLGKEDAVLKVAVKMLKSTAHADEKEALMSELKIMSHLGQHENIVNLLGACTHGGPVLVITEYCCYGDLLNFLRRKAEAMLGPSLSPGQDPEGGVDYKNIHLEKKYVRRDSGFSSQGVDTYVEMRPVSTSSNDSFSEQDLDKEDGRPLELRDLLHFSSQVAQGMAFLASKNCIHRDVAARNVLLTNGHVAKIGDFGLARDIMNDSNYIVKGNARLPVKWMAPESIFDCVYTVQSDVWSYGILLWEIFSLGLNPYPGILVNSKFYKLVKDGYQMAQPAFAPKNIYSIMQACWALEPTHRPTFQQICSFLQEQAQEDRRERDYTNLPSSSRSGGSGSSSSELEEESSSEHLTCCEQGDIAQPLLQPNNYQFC

Compound	IC50 [1] [µM]	IC50 (M-NFS-60 cells) [µM]	IC50 (osteoclast precursors) [µM]	IC50 [2] [µM]	IC50 [3] [µM]	IC50 [4] [µM]
Cn1cc(-c2cc(Oc3ccc(NC(=O)N4CCN(C5CCOCC5)C4=O)nc3)ncn2)cn1 [Example 8, N-(5-((6-(1-methyl-1H-pyrazol-4-yl)pyrimidin-4-yl)oxy)pyridin-2-yl)-2-oxo-3-(tetrahydro-2H-pyran-4-yl)imidazolidine-1-carboxamide]	0.01 to 0.1	0.1 to 1	0.01 to 0.1	0.01 to 0.1		
Cc1nc(NC(=O)N2CCN(C3CCOCC3)C2=O)ccc1Oc1ccnc(-c2cn[nH]c2)c1 [Example 9, N-(5-((2-(1H-pyrazol-4-yl)pyridin-4-yl)oxy)-6-methylpyridin-2-yl)-2-oxo-3-(tetrahydro-2H-pyran-4-yl)imidazolidine-1-carboxamide]	0.01 to 0.1	0.1 to 1	0.01 to 0.1	0.01 to 0.1		
Cc1cc(NC(=O)N2CCN(C3CCCC3)C2=O)nc(C)c1Oc1ccnc(-c2cnn(C)c2)c1 [Example 72, 3-cyclopentyl-N-(4,6-dimethyl-5-((2-(1-methyl-1H-pyrazol-4-yl)pyridin-4-yl)oxy)pyridin-2-yl)-2-oxoimidazolidine-1-carboxamide]	< 0.01	< 0.01	< 0.01		< 0.01	0.01 to 0.1
COCCN1CCN(C(=O)Nc2ccc(Oc3ccnc(-c4ccc(C5CCN(C)CC5)cc4)c3)c(C)n2)C1=O [Example 80, 3-(2-methoxyethyl)-N-(6-methyl-5-((2-(4-(1-methylpiperidin-4-yl)phenyl)pyridin-4-yl)oxy)pyridin-2-yl)-2-oxoimidazolidine-1-carboxamide]	< 0.01	0.01 to 0.1	0.01 to 0.1		0.1 to 1	> 1
Cn1cnc(-c2cc(Oc3ccc(NC(=O)N4CCN(C5CCOCC5)C4=O)nc3)ccn2)c1 [Example 83, N-(5-((2-(1-methyl-1H-imidazol-4-yl)pyridin-4-yl)oxy)pyridin-2-yl)-2-oxo-3-(tetrahydro-2H-pyran-4-yl)imidazolidine-1-carboxamide]	0.01 to 0.1	0.01 to 0.1	0.01 to 0.1		0.01 to 0.1	0.1 to 1
Cn1cnc(-c2cc(Oc3ccc(NC(=O)N4CCN(CC(F)(F)F)C4=O)nc3)ccn2)c1 [Example 84, N-(5-((2-(1-methyl-1H-imidazol-4-yl)pyridin-4-yl)oxy)pyridin-2-yl)-2-oxo-3-(2,2,2-trifluoroethyl)imidazolidine-1-carboxamide]	0.01 to 0.1	0.01 to 0.1	0.01 to 0.1		0.01 to 0.1	> 1
Cc1nc(NC(=O)N2CCN(C3CC3)C2=O)ccc1Oc1ccnc(-c2ccc(C3CCN(C)CC3)cc2)c1 [Example 86, 3-cyclopropyl-N-(6-methyl-5-((2-(4-(1-methylpiperidin-4-yl)phenyl)pyridin-4-yl)oxy)pyridin-2-yl)-2-oxoimidazolidine-1-carboxamide]	< 0.01	< 0.01	< 0.01		0.01 to 0.1	> 1
Cc1cn(-c2cc(Oc3cnc(NC(=O)N4CCN(C)C4=O)cc3C)ccn2)cn1 [Example 89, 3-methyl-N-(4-methyl-5-((2-(4-methyl-1H-imidazol-1-yl)pyridin-4-yl)oxy)pyridin-2-yl)-2-oxoimidazolidine-1-carboxamide]	0.1 to 1	> 1	0.1 to 1		0.1 to 1	> 1
O=C(Nc1cc(Cl)c(Oc2ccnc(-c3cn[nH]c3)c2)cc1F)N1CCN(C2CCOCC2)C1=O [Example 94, N-(4-((2-(1H-pyrazol-4-yl)pyridin-4-yl)oxy)-5-chloro-2-fluorophenyl)-2-oxo-3-(tetrahydro-2H-pyran-4-yl)imidazolidine-1-carboxamide]	0.01 to 0.1	0.1 to 1	0.1 to 1	0.01 to 0.1		
Cn1cc(-c2cc(Oc3ccc(NC(=O)N4CCN(C5CCOCC5)C4=O)cc3Cl)ccn2)cn1 [Example 96, N-(3-chloro-4-((2-(1-methyl-1H-pyrazol-4-yl)pyridin-4-yl)oxy)phenyl)-2-oxo-3-(tetrahydro-2H-pyran-4-yl)imidazolidine-1-carboxamide]	0.01 to 0.1	> 1	0.1 to 1	0.01 to 0.1		
CC(=O)Nc1cc(Oc2cc(F)c(NC(=O)N3CCN(C4CCOCC4)C3=O)cc2Cl)ccn1 [Example 97, N-(4-((2-acetamidopyridin-4-yl)oxy)-5-chloro-2-fluorophenyl)-2-oxo-3-(tetrahydro-2H-pyran-4-yl)imidazolidine-1-carboxamide]	0.01 to 0.1	0.1 to 1	0.1 to 1	0.1 to 1		
Cn1cc(-c2cc(Oc3cc(F)c(NC(=O)N4CCN(C5CCOCC5)C4=O)cc3Br)ccn2)cn1 [Example 109, N-(5-bromo-2-fluoro-4-((2-(1-methyl-1H-pyrazol-4-yl)pyridin-4-yl)oxy)phenyl)-2-oxo-3-(tetrahydro-2H-pyran-4-yl)imidazolidine-1-carboxamide]	0.01 to 0.1	0.01 to 0.1	0.1 to 1		0.01 to 0.1	> 1
CCN1CCN(C(=O)Nc2ccc(Oc3ccnc(C(=O)NC)c3)cn2)C1=O [Example 115, 4-((6-(3-ethyl-2-oxoimidazolidine-1-carboxamido)pyridin-3-yl)oxy)-N-methylpicolinamide]	0.1 to 1	> 1	0.01 to 0.1		0.1 to 1	> 1
COCCN1CCN(C(=O)Nc2ccc(Oc3ccnc(NC(=O)N(C)C)c3)cn2)C1=O [Example 116, N-(5-((2-(3,3-dimethylureido)pyridin-4-yl)oxy)pyridin-2-yl)-3-(2-methoxyethyl)-2-oxoimidazolidine-1-carboxamide]	0.01 to 0.1	0.1 to 1	0.01 to 0.1		0.01 to 0.1	> 1
CC(=O)Nc1cc(Oc2ccc(NC(=O)N3CCN(C4CCOCC4)C3=O)nc2C)ccn1 [Example 121, N-(5-((2-acetamidopyridin-4-yl)oxy)-6-methylpyridin-2-yl)-2-oxo-3-(tetrahydro-2H-pyran-4-yl)imidazolidine-1-carboxamide]	0.01 to 0.1	0.1 to 1	0.1 to 1		0.1 to 1	0.1 to 1
CCN1CCN(C(=O)Nc2ccc(Oc3ccnc(NC(C)=O)c3)c(C)n2)C1=O [Example 122, N-(5-((2-acetamidopyridin-4-yl)oxy)-6-methylpyridin-2-yl)-3-ethyl-2-oxoimidazolidine-1-carboxamide]	0.01 to 0.1	0.1 to 1	0.1 to 1		> 1	> 1
